Tests used:
[1] = molecular target: T1, hA2A receptors (Homo sapiens, UniProt P29274); assay: radioligand binding to human A2A receptors, HEK-293 membranes; conditions: average of duplicate experiments
T1 construct: purchased PerkinElmer RBHA2AM
Description: The binding affinities of synthesized compounds to human A2A receptors (hA2AR) were measured by assessing competitive binding of ligands to radioligand […] using membrane preparations of human recombinant HEK-293 cells expressing human A2A receptors.
The radioligand-binding assays for adenosine receptors were performed at Eurofins Discovery Services (Panlabs, Taiwan). Briefly, stock solutions of the compounds were prepared in DMSO and further diluted with the incubation buffer to the desired concentration. Final DMSO concentrations in the assay were 1.0%. […] Nonspecific binding was estimated in the presence of 100 μM R(-)-PIA. Membranes were filtered and washed 3 times and the filters were counted to determine specifically bound [^3H]DPCPX. Chemical compounds were screened at 10 μM. […] Nonspecific binding was estimated in the presence of 50.0 μM NECA. […] Nonspecific binding was estimated in the presence of 100 μM NECA. Membranes were filtered and washed 3 times and the filters were counted to determine [^3H]MRS1754 specifically bound. […] Nonspecific binding was estimated in the presence of 1.0 μM IB-MECA.
IC50 values were determined by a nonlinear, least-squares regression analysis using MathIQ^TM (ID Business Solutions Ltd., Guildford, UK). […] The Hill coefficient (nH), which defines the slope of the competitive binding curve, was calculated using MathIQ^TM.

[2] = molecular target: T2, hA1 receptor (Homo sapiens, UniProt P30542); assay: radioligand binding to human A1 receptors, CHO-K1 membranes, [3H]DPCPX; conditions: average of duplicate experiments
T2 sequence (P30542 1-326): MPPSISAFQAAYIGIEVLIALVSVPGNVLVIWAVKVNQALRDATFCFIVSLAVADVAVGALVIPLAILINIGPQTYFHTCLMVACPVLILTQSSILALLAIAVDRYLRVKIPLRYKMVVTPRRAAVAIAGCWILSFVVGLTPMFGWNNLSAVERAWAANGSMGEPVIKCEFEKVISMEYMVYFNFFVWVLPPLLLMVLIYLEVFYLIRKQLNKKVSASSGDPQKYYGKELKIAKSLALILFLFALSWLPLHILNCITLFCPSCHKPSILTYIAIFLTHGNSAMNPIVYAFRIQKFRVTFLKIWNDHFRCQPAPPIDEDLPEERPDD
Description: The radioligand-binding assays for adenosine receptors were performed at Eurofins Discovery Services (Panlabs, Taiwan). Briefly, stock solutions of the compounds were prepared in DMSO and further diluted with the incubation buffer to the desired concentration. Final DMSO concentrations in the assay were 1.0%. For adenosine A1 screening, a 10 μg aliquots of membrane preparations from human recombinant CHO-K1 cells stably expressing A1 receptors (CHO-K1-hA1AR clone3, EPDST, R200510) were incubated with 1 nM [^3H]DPCPX in incubation buffer (20 mM HEPES, pH 7.4, 10 mM MgCl2, 100 mM NaCl 1.40 nM) for 90 min at 25 °C. Nonspecific binding was estimated in the presence of 100 μM R(-)-PIA. Membranes were filtered and washed 3 times and the filters were counted to determine specifically bound [^3H]DPCPX. Chemical compounds were screened at 10 μM. For A2A screening, membrane preparations from human recombinant HEK-293 cells stably expressing A2A receptors (PerkinElmer, RBHA2AM) were incubated with 0.05 μM [^3H]CGS-21680 in incubation buffer (50 mM Tris-HCl, pH 7.4, 10 mM MgCl2, 1 mM EDTA, 2 U/mL Adenosine Deaminase) for 90 min at 25 °C. Nonspecific binding was estimated in the presence of 50.0 μM NECA. Membranes were filtered and washed 3 times and the filters were counted to determine [^3H]CGS-21680 specifically bound. For A2B screening, membrane preparations from human recombinant HEK-293 cells stably expressing A2B receptors (PerkinElmer, ES-013-M) were incubated with 1.6 nM [^3H]MRS1754 in incubation buffer (50 mM Tris-HCl, pH 6.5, 5 mM MgCl2, 1 mM EDTA, 0.01 % Bacitracin) for 90 min at 25 °C. Nonspecific binding was estimated in the presence of 100 μM NECA. Membranes were filtered and washed 3 times and the filters were counted to determine [^3H]MRS1754 specifically bound. For A3 screening, membrane preparations from human recombinant CHO-K1 cells stably expressing A3 receptors (PerkinElmer, ES-012-M) were incubated with 0.5 nM [^125I]AB-MECA in incubation buffer (25 mM HEPES, pH 7.4, 5 mM MgCl2, 1 mM CaCl2, 0.1 % BSA) for 60 min at 25 °C. Nonspecific binding was estimated in the presence of 1.0 μM IB-MECA.
IC50 values were determined by a nonlinear, least-squares regression analysis using MathIQ^TM (ID Business Solutions Ltd., Guildford, UK). Where inhibition constants (Ki) were presented, the Ki values were calculated using Cheng and Prusoff equation [18] using the observed IC50 of the compound, the concentration of radioligand employed in the assay, and the historical values for the KD of the ligand (obtained experimentally at Eurofins Panlabs, Inc.). The Hill coefficient (nH), which defines the slope of the competitive binding curve, was calculated using MathIQ^TM.

[3] = solubility (qualitative); type: physicochemical; conditions: CF3 next to aniline, difficulties in forming salt

T1 sequence (P29274 whole entry): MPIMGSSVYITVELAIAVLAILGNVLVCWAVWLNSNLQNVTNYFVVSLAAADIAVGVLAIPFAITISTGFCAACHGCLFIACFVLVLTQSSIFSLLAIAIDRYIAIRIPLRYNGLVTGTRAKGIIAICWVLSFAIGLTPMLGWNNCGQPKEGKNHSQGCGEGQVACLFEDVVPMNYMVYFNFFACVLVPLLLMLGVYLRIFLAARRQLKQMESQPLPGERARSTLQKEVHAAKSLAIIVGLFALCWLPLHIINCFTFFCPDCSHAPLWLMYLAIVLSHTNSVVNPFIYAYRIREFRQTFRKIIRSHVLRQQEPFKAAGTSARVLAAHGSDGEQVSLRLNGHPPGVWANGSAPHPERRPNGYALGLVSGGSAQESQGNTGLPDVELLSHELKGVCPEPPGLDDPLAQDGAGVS

SMILES | Ki [1] [nM] | Ki [2] [nM] | solubility (in words) [3]
N#Cc1cccc(-c2nc(N)nc3c2cnn3Cc2ccc(N)cc2)c1 [4a, 3-(6-Amino-1-(4-aminobenzyl)-1H-pyrazolo[3,4-d]pyrimidin-4-yl)benzonitrile] | 16.4 | – | –
N#Cc1cccc(-c2nc(N)nc3c2cnn3Cc2ccc(N)cc2)c1F [4b, 3-(6-Amino-1-(4-aminobenzyl)-1H-pyrazolo[3,4-d]pyrimidin-4-yl)-2-fluorobenzonitrile] | 19.4 | – | –
N#Cc1ccnc(-c2nc(N)nc3c2cnn3Cc2ccc(N)cc2)c1 [11a, 2-(6-Amino-1-(4-aminobenzyl)-1H-pyrazolo[3,4-d]pyrimidin-4-yl)isonicotinonitrile] | 310 | 2470 | –
N#Cc1cccc(-c2nc(N)nc3c2cnn3Cc2ccc(N)cc2)n1 [11b, 6-(6-Amino-1-(4-aminobenzyl)-1H-pyrazolo[3,4-d]pyrimidin-4-yl)picolinonitrile] | 31 | 650 | –
N#Cc1cncc(-c2nc(N)nc3c2cnn3Cc2ccc(N)cc2)c1 [11c, 5-(6-Amino-1-(4-aminobenzyl)-1H-pyrazolo[3,4-d]pyrimidin-4-yl)nicotinonitrile] | 4790 | 32000 | –
N#Cc1cc(-c2nc(N)nc3c2cnn3Cc2ccc(N)cc2)ccn1 [11d, 4-(6-Amino-1-(4-aminobenzyl)-1H-pyrazolo[3,4-d]pyrimidin-4-yl)picolinonitrile] | 4720 | 8530 | –
N#Cc1ccnc(-c2nc(N)nc3c2cnn3Cc2ccc(N)cc2F)c1 [11e, 2-(6-Amino-1-(4-amino-2-fluorobenzyl)-1H-pyrazolo[3,4-d]pyrimidin-4-yl)isonicotinonitrile] | 120 | 710 | –
N#Cc1cccc(-c2nc(N)nc3c2cnn3Cc2ccc(N)cc2F)n1 [11f, 6-[6-Amino-1-[(4-amino-2-fluoro-phenyl)methyl]pyrazolo[3,4-d]pyrimidin-4-yl]pyridine-2-carbonitrile] | 10.6 | 160 | –
N#Cc1cncc(-c2nc(N)nc3c2cnn3Cc2ccc(N)cc2F)c1 [11g, 5-(6-Amino-1-(4-amino-2-fluorobenzyl)-1H-pyrazolo[3,4-d]pyrimidin-4-yl)nicotinonitrile] | 2640 | 32800 | –
N#Cc1cc(-c2nc(N)nc3c2cnn3Cc2ccc(N)cc2F)ccn1 [11h, 4-(6-Amino-1-(4-amino-2-fluorobenzyl)-1H-pyrazolo[3,4-d]pyrimidin-4-yl)picolinonitrile] | 3190 | 28000 | –
N#Cc1cccc(-c2nc(N)nc3c2cnn3Cc2ccc(N)cc2F)c1 [11i, 3-(6-Amino-1-(4-amino-2-fluorobenzyl)-1H-pyrazolo[3,4-d]pyrimidin-4-yl)benzonitrile] | 12.1 | 160 | –
N#Cc1cccc(-c2nc(N)nc3c2cnn3Cc2ccc(N)cc2F)c1F [11j, 3-(6-Amino-1-(4-amino-2-fluorobenzyl)-1H-pyrazolo[3,4-d]pyrimidin-4-yl)-2-fluorobenzonitrile] | 16.4 | 63 | –
Cc1cc(Cn2ncc3c(-c4cc(C#N)ccn4)nc(N)nc32)ccc1N [11k, 2-(6-Amino-1-(4-amino-3-methylbenzyl)-1H-pyrazolo[3,4-d]pyrimidin-4-yl)isonicotinonitrile] | 65 | 510 | –
Cc1cc(Cn2ncc3c(-c4cccc(C#N)n4)nc(N)nc32)ccc1N [11l, 6-(6-Amino-1-(4-amino-3-methylbenzyl)-1H-pyrazolo[3,4-d]pyrimidin-4-yl)picolinonitrile] | 6.39 | 180 | –
Cc1cc(Cn2ncc3c(-c4cncc(C#N)c4)nc(N)nc32)ccc1N [11m, 5-(6-Amino-1-(4-amino-3-methylbenzyl)-1H-pyrazolo[3,4-d]pyrimidin-4-yl)nicotinonitrile] | 2480 | 21200 | –
Cc1cc(Cn2ncc3c(-c4ccnc(C#N)c4)nc(N)nc32)ccc1N [11n, 4-(6-Amino-1-(4-amino-3-methylbenzyl)-1H-pyrazolo[3,4-d]pyrimidin-4-yl)picolinonitrile] | 1150 | 21300 | –
N#Cc1ccnc(-c2nc(N)nc3c2cnn3Cc2c(F)cc(N)cc2F)c1 [11p, 2-[6-Amino-1-[(4-amino-2,6-difluoro-phenyl)methyl]pyrazolo[3,4-d]pyrimidin-4-yl]pyridine-4-carbonitrile] | 47 | 380 | –
N#Cc1cccc(-c2nc(N)nc3c2cnn3Cc2c(F)cc(N)cc2F)n1 [11q, 6-[6-Amino-1-[(4-amino-2,6-difluoro-phenyl)methyl]pyrazolo[3,4-d]pyrimidin-4-yl]pyridine-2-carbonitrile] | 6.84 | 150 | –
N#Cc1cncc(-c2nc(N)nc3c2cnn3Cc2c(F)cc(N)cc2F)c1 [11r, 5-[6-Amino-1-[(4-amino-2,6-difluoro-phenyl)methyl]pyrazolo[3,4-d]pyrimidin-4-yl]pyridine-3-carbonitrile] | 1220 | 10000 | –
N#Cc1cc(-c2nc(N)nc3c2cnn3Cc2c(F)cc(N)cc2F)ccn1 [11s, 4-[6-Amino-1-[(4-amino-2,6-difluoro-phenyl)methyl]pyrazolo[3,4-d]pyrimidin-4-yl]pyridine-2-carbonitrile] | 4920 | – | –
N#Cc1cccc(-c2nc(N)nc3c2cnn3Cc2c(F)cc(N)cc2F)c1 [11t, 3-[6-Amino-1-[(4-amino-2,6-difluoro-phenyl)methyl]pyrazolo[3,4-d]pyrimidin-4-yl]benzonitrile] | 7.42 | 50 | –
N#Cc1cccc(-c2nc(N)nc3c2cnn3Cc2c(F)cc(N)cc2F)c1F [11u, 3-(6-Amino-1-(4-amino-2,6-difluorobenzyl)-1H-pyrazolo[3,4-d]pyrimidin-4-yl)-2-fluorobenzonitrile] | 6.45 | 30 | –
N#Cc1ccnc(-c2nc(N)nc3c2cnn3Cc2ccc(N)c(C(F)(F)F)c2)c1 [11v, 2-[6-Amino-1-[[4-amino-3-(trifluoromethyl)phenyl]methyl]pyrazolo[3,4-d]pyrimidin-4-yl]pyridine-4-carbonitrile] | 10.2 | 250 | greatly reduced solubility
N#Cc1cccc(-c2nc(N)nc3c2cnn3Cc2ccc(N)c(C(F)(F)F)c2)c1 [11w, 3-(6-Amino-1-(4-amino-3-(trifluoromethyl)benzyl)-1H-pyrazolo[3,4-d]pyrimidin-4-yl)benzonitrile] | 1.94 | 49 | greatly reduced solubility
CCn1c(=O)c2c(nc(/C=C/c3ccc(OC)c(OC)c3)n2C)n(CC)c1=O [Istradefylline, reference compound] | – | 610 | –
Cc1cc(Cn2ncc3c(-c4cccc(C#N)c4)nc(N)nc32)ccc1N [compound 8, 3-(6-Amino-1-(4-amino-3-methylbenzyl)-1H-pyrazolo[3,4-d]pyrimidin-4-yl)benzonitrile] | 11.1 | 110 | –
